In patent US10676462B2, “Quinoline derivative” (ONO PHARMACEUTICAL CO., LTD., priority 2013, dated 2020):

What was measured:
Axl enzyme = target: T1, Axl enzyme (Homo sapiens, UniProt P30530); assay: Measurement of an Axl inhibitory activity (LanthaScreen TR-FRET, in vitro test); assay type: biochemical
T1 construct: a solution containing 400 ng/mL Axl enzyme was prepared
T1 sequence (P30530 26-894): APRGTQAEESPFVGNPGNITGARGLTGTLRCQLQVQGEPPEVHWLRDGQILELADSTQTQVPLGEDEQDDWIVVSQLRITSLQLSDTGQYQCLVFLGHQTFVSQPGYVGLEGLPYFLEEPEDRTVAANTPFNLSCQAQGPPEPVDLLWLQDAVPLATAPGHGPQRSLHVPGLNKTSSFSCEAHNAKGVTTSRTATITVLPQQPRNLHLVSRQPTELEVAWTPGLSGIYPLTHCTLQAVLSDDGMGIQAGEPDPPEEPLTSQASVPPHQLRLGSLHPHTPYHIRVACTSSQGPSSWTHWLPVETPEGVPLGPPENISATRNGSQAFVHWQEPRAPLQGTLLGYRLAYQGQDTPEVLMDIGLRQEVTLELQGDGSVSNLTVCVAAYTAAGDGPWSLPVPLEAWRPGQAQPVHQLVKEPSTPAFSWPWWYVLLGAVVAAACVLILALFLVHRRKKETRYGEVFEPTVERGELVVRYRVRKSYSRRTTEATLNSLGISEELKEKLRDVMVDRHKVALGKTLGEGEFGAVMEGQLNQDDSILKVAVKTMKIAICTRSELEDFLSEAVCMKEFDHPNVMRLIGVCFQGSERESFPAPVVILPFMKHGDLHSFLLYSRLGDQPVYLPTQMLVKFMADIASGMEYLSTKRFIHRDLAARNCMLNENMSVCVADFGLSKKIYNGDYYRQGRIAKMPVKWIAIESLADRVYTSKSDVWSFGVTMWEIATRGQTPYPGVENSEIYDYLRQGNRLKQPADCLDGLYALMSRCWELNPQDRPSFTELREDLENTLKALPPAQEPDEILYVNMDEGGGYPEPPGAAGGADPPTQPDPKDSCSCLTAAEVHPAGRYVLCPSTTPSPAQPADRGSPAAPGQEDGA
Description: Biological Example 1: Measurement of an Axl Inhibitory Activity (In Vitro Test)
An Axl enzyme inhibitory activity was measured by using LanthaScreen (registered trademark) system (Invitrogen) based on the attached instruction. The reagents used are shown below.
Reaction buffer solution: a solution containing 50 mmol/L HEPES (pH7.5), 0.01% Brij35, 10 mmol/L MgCl2 and 1 mmol/L EGTA was prepared by using purified water.
Test substance solution: a solution containing a test compound of 5-fold concentration with respect to the final concentration was prepared by 20-fold diluting a DMSO solution of test compound of each concentration with the reaction buffer solution.
Enzyme solution: a solution containing 400 ng/mL Axl enzyme was prepared by using the reaction buffer solution.
Substrate solution: a solution containing 45 μmmol/L ATP and 500 nmmol/L Fluorescein-Poly GT (Invitrogen) was prepared by using the reaction buffer solution.
Detection solution: a solution containing 20 mM EDTA and 4 nM PY20 (Invitrogen) was prepared by using Dilution B (Invitrogen).
A 10 mmol/L DMSO solution of the test compound was dispensed into a 96-well plate (Nunc), and, furthermore, a 3-fold dilution series was prepared using DMSO. In each well of the 96-well plate for measurement, 5 μL each of the reaction buffer solution containing DMSO was added to a Blank group and a medium group, and 5 μL of the test substance solution was added to the test substance group, respectively. Next, 10 μL/well of the reaction buffer solution was added to the Blank group, and 10 μL/well each of the enzyme solution was added to the medium group and the test compound group, followed by stirring at room temperature for 10 min. After the completion of stirring, 10 μL each of the substrate solution was added into each well, followed by stirring at room temperature with light shielded for one hour. After the completion of reaction, 25 μL each of the detection solution was added to each well, and stood still at room temperature with light shielded for 30 min. After standing sill, fluorescence intensity at 520 nm and 495 nm at the time of irradiation with exciting light of 340 nm was measured by using Analyst GT (Molecular Devices). The phosphorylation of the artificial substrate was quantified by Time-resolved Fluorescence Resonance Energy Transfer (TR-FRET). TR-FRET ratio was calculated by dividing 520 nm fluorescence signal by 495 nm fluorescence signal for each well, and the inhibition rate (%) in the test compound group was calculated based on the following mathematical formula. Inhibition rate (%)=[1−(TR-FRET ratio of test compound group−A)/(B−A)×100 [Math. 1] A: average value of TR-FRET ratios of Blank group B: average value of TR-FRET ratios of medium group
Values of 50% inhibition rate (IC50 values) of the test compound were calculated from the inhibition curve based on the inhibition rate of the test compounds in each concentration.

KDR = KDR (Homo sapiens, UniProt P35968); assay: Evaluation of kinase selectivity (in vitro test), KDR; assay type: biochemical; conditions: Axl selective inhibitory activity with respect to KDR, ratio of IC50 values
Description: Biological Example 3: Evaluation of Kinase Selectivity (In Vitro Test)
Similar to Biological Example 1, values of 50% inhibition rate (IC50 value) with respect to various kinases (KDR, DDR1, FLT4, and ROS) of the test compound were measured. The Axl selective inhibitory activity of the test compound with respect to kinases, for example, KDR, was calculated based on the above-mentioned ratio of the IC50 values. As the test compound, for the compound of the present invention, the compounds of Examples 5, 5(1), 17(2), and 23(2) were used, and for the comparative compounds, the compound of Example 5 (Comparative compound C) and the compound of Example 92 (Comparative compound D) described in Patent Literature 5, having the following structure, were used.

Sequence of KDR (P35968 20-1356): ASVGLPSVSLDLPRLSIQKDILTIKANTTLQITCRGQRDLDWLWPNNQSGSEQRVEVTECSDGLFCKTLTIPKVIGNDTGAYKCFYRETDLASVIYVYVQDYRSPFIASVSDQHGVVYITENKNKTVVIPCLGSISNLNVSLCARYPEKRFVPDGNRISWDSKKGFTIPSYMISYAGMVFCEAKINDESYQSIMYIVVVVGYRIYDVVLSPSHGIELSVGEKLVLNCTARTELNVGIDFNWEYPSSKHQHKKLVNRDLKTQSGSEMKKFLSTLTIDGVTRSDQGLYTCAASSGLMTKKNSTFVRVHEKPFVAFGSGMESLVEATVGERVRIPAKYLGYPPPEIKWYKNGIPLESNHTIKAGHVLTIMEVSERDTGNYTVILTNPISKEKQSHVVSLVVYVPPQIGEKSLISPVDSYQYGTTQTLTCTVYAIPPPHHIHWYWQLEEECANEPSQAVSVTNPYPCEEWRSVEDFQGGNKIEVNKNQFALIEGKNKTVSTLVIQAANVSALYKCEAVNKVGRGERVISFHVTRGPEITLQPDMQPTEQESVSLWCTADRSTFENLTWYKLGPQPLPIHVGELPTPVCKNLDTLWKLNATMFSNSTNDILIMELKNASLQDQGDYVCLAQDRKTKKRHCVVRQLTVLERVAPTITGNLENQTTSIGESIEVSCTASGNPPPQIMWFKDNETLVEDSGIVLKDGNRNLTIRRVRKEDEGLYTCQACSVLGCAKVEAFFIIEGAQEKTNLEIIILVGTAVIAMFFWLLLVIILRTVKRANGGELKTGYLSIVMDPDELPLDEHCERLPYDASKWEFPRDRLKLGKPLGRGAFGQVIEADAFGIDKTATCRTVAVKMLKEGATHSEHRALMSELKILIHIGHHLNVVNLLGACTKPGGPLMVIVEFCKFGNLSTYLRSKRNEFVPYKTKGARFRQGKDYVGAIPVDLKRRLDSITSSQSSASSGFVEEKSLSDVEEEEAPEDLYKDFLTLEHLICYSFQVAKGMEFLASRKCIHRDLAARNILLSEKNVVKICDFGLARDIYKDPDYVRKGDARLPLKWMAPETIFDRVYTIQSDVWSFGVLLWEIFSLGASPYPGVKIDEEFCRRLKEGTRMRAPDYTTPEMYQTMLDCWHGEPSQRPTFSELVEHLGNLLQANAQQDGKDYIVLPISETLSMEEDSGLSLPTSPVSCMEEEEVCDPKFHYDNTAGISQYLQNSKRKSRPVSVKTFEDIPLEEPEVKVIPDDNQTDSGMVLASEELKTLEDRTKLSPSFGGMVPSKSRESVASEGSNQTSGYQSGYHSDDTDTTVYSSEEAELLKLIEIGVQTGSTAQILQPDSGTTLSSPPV

| SMILES | IC50 (Axl enzyme) | KDR [IC50]/Axl [IC50] (KDR) |
| --- | --- | --- |
| COc1cc2nccc(Oc3ccc(NC(=O)c4cc5c(n(-c6ccccc6)c4=O)CC(C)(C)CC5=O)nc3)c2cc1OC [Example 5(1), N-{5-[(6,7-dimethoxy-4-quinolinyl)oxy]-2-pyridinyl}-7,7-dimethyl-2,5-dioxo-1-phenyl-1,2,5,6,7,8-hexahydro-3-quinolinecarboxamide] | 5.6 nM | about 1800 times |
| COc1cc2nccc(Oc3ccc(NC(=O)c4cc5c(n(-c6ccccc6)c4=O)CCCC5=O)nc3)c2cc1OC [Example 5, N-{5-[(6,7-dimethoxy-4-quinolinyl)oxy]-2-pyridinyl}-2,5-dioxo-1-phenyl-1,2,5,6,7,8-hexahydro-3-quinolinecarboxamide] | 2.2 nM | about 900 times |
| O=C1CCCc2c1cc(C(=O)Nc1ccc(Oc3ccnc4cc(OCCCN5CCOCC5)ccc34)cn1)c(=O)n2-c1ccccc1 [Example 17(2), N-[5-({7-[3-(4-morpholinyl)propoxy]-4-quinolinyl}oxy)-2-pyridinyl]2,5-dioxo-1-phenyl-1,2,5,6,7,8-hexahydro-3-quinolinecarboxamide] | 4.4 nM | about 650 times |
| COc1cc2nccc(Oc3ccc(NC(=O)c4cc5c(n(-c6ccccc6)c4=O)CCCC5=O)c(C)c3)c2cc1OC [Example 23(2), N-{4-[(6,7-dimethoxy-4-quinolinyl)oxy]-2-methylphenyl}-2,5-dioxo-1-phenyl-1,2,5,6,7,8-hexahydro-3-quinolinecarboxamide] | 1.1 nM | about 520 times |
